Assay results published in the NIST ThermoML archive (doi:10.1021/je0340248).
± gives the expanded uncertainty stated by the source.

Assay: xn = mol fraction of the nth substance listed
Conditions: 101 kPa, Liquid

CC(O)CO (stereo unspecified) [1,2-propanediol] + CCCCOC(C)=O
Conditions | mass density, 298.15 K [kg/m3] | mass density, 303.15 K [kg/m3] | mass density, 308.15 K [kg/m3] | mass density, 313.15 K [kg/m3] | speed of sound, 298.15 K [m/s] | speed of sound, 308.15 K [m/s] | viscosity, 298.15 K [mPa·s] | viscosity, 308.15 K [mPa·s]
x2 = 0.0445 | 1020.01 ± 0.36 | 1016.1 ± 0.37 | 1012.28 ± 0.38 | 1008.28 ± 0.39 | 1467 ± 2 | 1429 ± 2 | 31.87 ± 0.44 | 18.51 ± 0.34
x2 = 0.1493 | 993.58 ± 0.45 | 989.44 ± 0.46 | 985.19 ± 0.48 | 980.98 ± 0.49 | 1407 ± 2 | 1372 ± 2 | 16.1 ± 0.25 | 10.19 ± 0.16
x2 = 0.2487 | 972.28 ± 0.53 | 968.01 ± 0.55 | 963.42 ± 0.56 | 959.09 ± 0.57 | 1355 ± 2 | 1322 ± 2 | 8.935 ± 0.14 | 6.083 ± 0.095
x2 = 0.3511 | 953.32 ± 0.61 | 948.95 ± 0.62 | 944.08 ± 0.64 | 939.65 ± 0.65 | 1310 ± 2 | 1280 ± 2 | 5.175 ± 0.084 | 3.762 ± 0.06
x2 = 0.446 | 937.92 ± 0.67 | 933.47 ± 0.68 | 928.39 ± 0.7 | 923.85 ± 0.72 | 1276 ± 2 | 1246 ± 2 | 3.295 ± 0.053 | 2.523 ± 0.041
x2 = 0.4973 | 930.34 ± 0.7 | 925.83 ± 0.72 | 920.66 ± 0.73 | 916.07 ± 0.75 | 1260 ± 2 | 1230 ± 2 | 2.638 ± 0.042 | 2.071 ± 0.034
x2 = 0.5491 | 923.15 ± 0.73 | 918.58 ± 0.75 | 913.33 ± 0.76 | 908.68 ± 0.78 | 1247 ± 2 | 1217 ± 2 | 2.141 ± 0.034 | 1.719 ± 0.028
x2 = 0.6504 | 910.32 ± 0.78 | 905.62 ± 0.8 | 900.23 ± 0.82 | 895.46 ± 0.83 | 1226 ± 2 | 1194 ± 2 | 1.489 ± 0.024 | 1.241 ± 0.02
x2 = 0.7495 | 899.15 ± 0.83 | 894.34 ± 0.85 | 888.84 ± 0.87 | 883.97 ± 0.88 | 1210 ± 2 | 1178 ± 2 | 1.106 ± 0.019 | 0.947 ± 0.016
x2 = 0.8489 | 889.19 ± 0.87 | 884.29 ± 0.89 | 878.67 ± 0.91 | 873.72 ± 0.93 | 1200 ± 2 | 1165 ± 2 | 0.87 ± 0.015 | 0.759 ± 0.013
x2 = 0.946 | 880.55 ± 0.91 | 875.62 ± 0.93 | 869.86 ± 0.95 | 864.9 ± 0.97 | 1194 ± 2 | 1155 ± 2 | 0.727 ± 0.013 | 0.64 ± 0.012

CC(O)CO (stereo unspecified) [1,2-propanediol] + CCOC(C)=O
Conditions | mass density, 298.15 K [kg/m3] | mass density, 303.15 K [kg/m3] | mass density, 308.15 K [kg/m3] | mass density, 313.15 K [kg/m3] | speed of sound, 298.15 K [m/s] | speed of sound, 308.15 K [m/s] | viscosity, 298.15 K [mPa·s] | viscosity, 308.15 K [mPa·s]
x2 = 0.0451 | 1024.21 ± 0.35 | 1020.33 ± 0.36 | 1016.53 ± 0.37 | 1012.46 ± 0.38 | 1463 ± 2 | 1429 ± 2 | 32.32 ± 0.44 | 19.38 ± 0.34
x2 = 0.1493 | 1005.58 ± 0.42 | 1001.36 ± 0.43 | 997.21 ± 0.44 | 992.76 ± 0.45 | 1401 ± 2 | 1371 ± 2 | 16.84 ± 0.25 | 11.71 ± 0.16
x2 = 0.2515 | 988.63 ± 0.48 | 984.09 ± 0.5 | 979.68 ± 0.51 | 974.9 ± 0.52 | 1343 ± 2 | 1317 ± 2 | 9.278 ± 0.13 | 7.28 ± 0.1
x2 = 0.3514 | 973.2 ± 0.55 | 968.36 ± 0.56 | 963.71 ± 0.57 | 958.63 ± 0.59 | 1294 ± 2 | 1268 ± 2 | 5.396 ± 0.081 | 4.653 ± 0.068
x2 = 0.4393 | 960.46 ± 0.6 | 955.37 ± 0.61 | 950.52 ± 0.63 | 945.17 ± 0.65 | 1255 ± 2 | 1229 ± 2 | 3.463 ± 0.053 | 3.184 ± 0.048
x2 = 0.5 | 952.1 ± 0.63 | 946.85 ± 0.65 | 941.84 ± 0.66 | 936.31 ± 0.68 | 1232 ± 2 | 1205 ± 2 | 2.597 ± 0.04 | 2.469 ± 0.038
x2 = 0.5497 | 945.49 ± 0.66 | 940.12 ± 0.68 | 934.99 ± 0.69 | 929.3 ± 0.71 | 1215 ± 2 | 1186 ± 2 | 2.075 ± 0.032 | 2.014 ± 0.031
x2 = 0.6505 | 932.74 ± 0.71 | 927.13 ± 0.73 | 921.75 ± 0.75 | 915.78 ± 0.77 | 1186 ± 2 | 1153 ± 2 | 1.357 ± 0.022 | 1.351 ± 0.022
x2 = 0.7495 | 921.01 ± 0.76 | 915.21 ± 0.78 | 909.59 ± 0.8 | 903.37 ± 0.82 | 1164 ± 2 | 1128 ± 2 | 0.93 ± 0.016 | 0.928 ± 0.016
x2 = 0.8499 | 909.87 ± 0.81 | 903.92 ± 0.83 | 898.1 ± 0.85 | 891.68 ± 0.87 | 1149 ± 2 | 1109 ± 2 | 0.661 ± 0.012 | 0.645 ± 0.011
x2 = 0.9487 | 899.61 ± 0.85 | 893.57 ± 0.87 | 887.61 ± 0.89 | 881.09 ± 0.91 | 1140 ± 2 | 1098 ± 2 | 0.491 ± 0.009 | 0.459 ± 0.009
